Test results: PubChem BioAssay (NCI)
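Dose response: 5 concentrations. Exposure: 48 h. Format: 96-well plates. Endpoint: linear interpolation; highest concentration if not reached. GI50 marks 50% less growth. TGI denotes the concentration required for complete inhibition of growth.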

What was measured:
Assay in all cases: inhibition of tumour cell growth, NCI panel, 48 h
A498 renal = system: A498 renal
HCC-2998 colon = system: HCC-2998 colon
HCT-15 colon = system: HCT-15 colon
MOLT-4 leukemia = system: MOLT-4 leukemia
RXF 393 renal = system: RXF 393 renal
SK-MEL-5 melanoma = system: SK-MEL-5 melanoma
SNB-75 CNS = system: SNB-75 CNS
TK-10 renal = system: TK-10 renal
CAKI-1 renal = system: CAKI-1 renal
MDA-MB-231 breast = system: MDA-MB-231 breast

Structure (SMILES) | TGI (A498 renal) | TGI (HCC-2998 colon) | TGI (HCT-15 colon) | TGI (MOLT-4 leukemia) | TGI (RXF 393 renal) | TGI (SK-MEL-5 melanoma) | TGI (SNB-75 CNS) | TGI (TK-10 renal) | GI50 (A498 renal) | GI50 (CAKI-1 renal) | TGI (CAKI-1 renal) | GI50 (MOLT-4 leukemia) | GI50 (RXF 393 renal) | GI50 (SK-MEL-5 melanoma) | GI50 (SNB-75 CNS) | GI50 (TK-10 renal) | GI50 (HCC-2998 colon) | GI50 (HCT-15 colon) | GI50 (MDA-MB-231 breast) | TGI (MDA-MB-231 breast)
CC1(OCc2ccccc2)C(=O)N2C1NCC2(C)C (configuration not stated) | > 100 µM | > 100 µM | > 100 µM | > 100 µM | > 100 µM | > 100 µM | > 100 µM | > 100 µM | – | – | – | – | – | – | – | – | – | – | – | –
O=C([CH-]C(=O)c1ccccc1)c1ccccc1.O=C([CH-]C(=O)c1ccccc1)c1ccccc1.O=C([CH-]C(=O)c1ccccc1)c1ccccc1.[Ga+3] | > 100 µM | – | – | > 100 µM | > 100 µM | > 100 µM | > 100 µM | > 100 µM | 56.8 µM | 67 µM | > 100 µM | 13.3 µM | 43.7 µM | 80.2 µM | 64.7 µM | > 100 µM | – | – | – | –
NS(=O)(=O)c1ccc(N(/C=C/C(=O)C(F)(F)F)CC(=O)c2ccc(F)cc2)cc1 | 0.54 µM | 33.8 µM | 85.5 µM | 72.5 µM | > 100 µM | – | – | > 100 µM | 0.0281 µM | 22.6 µM | 56.9 µM | 20 µM | 44 µM | – | – | 25.9 µM | 17.7 µM | 23.6 µM | 20.9 µM | 42 µM
N#CCCNc1nonc1-c1nc2ccccc2n1CC(=O)c1ccc(N)cc1 | 0.0873 µM | > 100 µM | > 100 µM | – | > 100 µM | 0.123 µM | > 73 µM | > 90.9 µM | < 0.01 µM | 0.0701 µM | > 100 µM | 0.0301 µM | 0.0129 µM | 0.0271 µM | 0.0232 µM | – | 0.0338 µM | 0.0334 µM | – | –
COc1ccc(C(=O)C(C(=O)CCC(=O)Nc2ccc(Cl)c(Cl)c2)c2ccc(OC)cc2)cc1 (configuration not stated) | > 100 µM | > 100 µM | > 100 µM | > 100 µM | > 100 µM | > 100 µM | > 100 µM | > 100 µM | – | – | > 100 µM | – | – | – | – | – | – | – | – | –
C/C(CN1C(=O)c2ccccc2C1=O)=N\NS(=O)(=O)c1ccc2ccccc2c1 | > 100 µM | > 100 µM | > 100 µM | > 100 µM | – | > 100 µM | > 100 µM | > 100 µM | – | – | > 100 µM | – | – | – | – | – | – | – | – | –
Cc1ccc(S(=O)c2ccccc2[N+](=O)[O-])cc1 (configuration not stated) | 88.1 µM | > 100 µM | > 100 µM | > 100 µM | > 100 µM | > 100 µM | – | > 100 µM | – | – | > 100 µM | – | – | – | – | – | – | – | – | –
C[C@@H]1C(=O)CC2C(C)(C)CCC[C@]2(C)[C@@]12CC[C@]1(C=COC1)O2 (some centres not stated) | – | > 100 µM | > 100 µM | 42.9 µM | 56.3 µM | – | – | – | – | – | > 100 µM | – | – | – | – | – | – | – | – | –
C=CCC1(O)c2ccccc2C(=O)c2c(OCC(=O)OCC)ccc(OCC(=O)OCC)c21 (configuration not stated) | > 100 µM | > 100 µM | > 100 µM | > 100 µM | – | > 100 µM | – | > 100 µM | > 100 µM | > 100 µM | > 100 µM | 51 µM | – | > 100 µM | – | > 100 µM | 44.9 µM | > 100 µM | 25.6 µM | > 100 µM
CN(C)CCC(N)(P(=O)([O-])[O-])P(=O)([O-])[O-].N.N.[Pt+2] | > 100 µM | > 100 µM | > 100 µM | > 100 µM | > 100 µM | > 100 µM | > 100 µM | > 100 µM | > 100 µM | > 100 µM | > 100 µM | > 100 µM | > 100 µM | > 100 µM | > 100 µM | > 100 µM | > 100 µM | > 100 µM | – | –
NC(N)NCCCc1cn2c(n1)C1CCCN1C(=O)C2Cc1ccccc1 (configuration not stated) | > 100 µM | > 100 µM | > 100 µM | > 100 µM | > 100 µM | > 100 µM | > 100 µM | > 100 µM | – | – | > 100 µM | – | – | – | – | – | – | – | – | –
CN(C)CC1CC/C(=C\c2ccc(Cl)c(Cl)c2)C1=O (configuration not stated) | 73.6 µM | > 58.5 µM | > 43.1 µM | 19 µM | > 61.8 µM | > 72.9 µM | > 66.6 µM | 19.9 µM | – | – | 56.1 µM | – | – | – | – | – | – | – | – | –
O=C(CCc1nnc2s/c(=C\c3ccc([N+](=O)[O-])cc3)c(=O)n12)Nc1ccc(Cl)c(Cl)c1 | > 100 µM | 53.9 µM | > 100 µM | 51.5 µM | 34.6 µM | > 100 µM | 28 µM | > 100 µM | – | – | > 100 µM | – | – | – | – | – | – | – | – | –
C=CCc1cccc(C=O)c1O | – | > 100 µM | > 100 µM | 55.1 µM | > 100 µM | > 100 µM | > 100 µM | > 100 µM | – | > 100 µM | > 100 µM | 15.5 µM | 94 µM | 38.5 µM | 10.6 µM | > 100 µM | > 100 µM | 6.56 µM | 19.1 µM | > 100 µM
CC(C)=CCc1cc2c(cc1O)C1=C(C(=O)C3=C(NCCS3(=O)=O)C1=O)C(C=C(C)C)O2 (configuration not stated) | > 16.7 µM | > 16.7 µM | > 16.7 µM | 12.2 µM | > 16.7 µM | 6.95 µM | > 16.7 µM | > 16.7 µM | > 16.7 µM | – | – | 3.16 µM | 7.66 µM | 3.35 µM | 10.8 µM | > 16.7 µM | 9.25 µM | 6.21 µM | 4.18 µM | 16.2 µM
CC(=O)C1(O)CC2(c3ccccc3)C(=O)C1(c1ccccc1)C(c1ccccc1)=C2c1ccccc1 (configuration not stated) | > 100 µM | – | > 100 µM | > 100 µM | > 100 µM | > 100 µM | > 100 µM | > 100 µM | – | – | > 100 µM | – | – | – | – | – | – | – | – | –
CCOC(=O)c1noc2c1CCc1c-2cn(Cc2ccc(OC)cc2)c1-c1cc(OC)c(OC)c(OC)c1 | 42 µM | > 100 µM | > 100 µM | > 100 µM | 45.6 µM | 66.7 µM | > 100 µM | > 100 µM | 2.77 µM | – | – | 2.7 µM | 2.17 µM | 0.493 µM | 3.65 µM | > 100 µM | 5.17 µM | 0.499 µM | 2.7 µM | > 100 µM
